According to the NIST ThermoML archive (doi:10.1021/je800244q):
Values joined by “and” are separate entries in the source; they are usually repeats but may differ in a detail not shown here. Identical values can stand only once. ± gives the expanded uncertainty stated by the source.

Tests used:
[1] = Liquid; for mass density: Vibrating tube method; for speed of sound: Pulse-echo method
[2] = refractive index (Na D-line) (dimensionless); settings: 298.15 K; 101.33 kPa; Liquid; Standard Abbe refractometry
[3] = molar heat capacity at constant pressure; settings: 101.33 kPa, Liquid, Small sample (50 mg) DSC

CC(O)CC(C)(C)O (centres undefined) [2-methyl-2,4-pentanediol]
[1]
Settings | mass density | speed of sound [m/s]
278.15 K, 101.33 kPa | 932.344 ± 0.24 kg/m3 | –
283.15 K, 101.33 kPa | 928.795 ± 0.24 kg/m3 | –
288.14 K, 100 kPa | – | 1326.5 ± 2.3
288.15 K, 101.33 kPa | 925.238 ± 0.24 kg/m3 | 1326.4 ± 1.6
291.11 K, 100 kPa | – | 1317.1 ± 2.3
292.85 K, 101320 kPa | – | 1675.8 ± 2.5
292.86 K, 15200 kPa | – | 1382.2 ± 2.3
292.86 K, 30390 kPa | – | 1443.5 ± 2.4
292.86 K, 45590 kPa | – | 1499.7 ± 2.4
292.86 K, 60790 kPa | – | 1551.7 ± 2.4
292.86 K, 75990 kPa | – | 1600.9 ± 2.5
292.86 K, 91180 kPa | – | 1646.9 ± 2.5
293.14 K, 100 kPa | – | 1310.7 ± 2.3
293.15 K, 101.33 kPa | 921.71 ± 0.24 kg/m3 and 921.676 ± 0.24 kg/m3 | 1310.7 ± 1.6
298.15 K, 100 kPa | – | 1295.2 ± 2.3
298.15 K, 101.33 kPa | 918.16 ± 0.24 kg/m3 and 918.11 ± 0.24 kg/m3 | 1295.2 ± 1.6
298.15 K, 15200 kPa | – | 1366.7 ± 2.4
298.15 K, 30390 kPa | – | 1428.8 ± 2.4
298.15 K, 45590 kPa | – | 1485.4 ± 2.4
298.15 K, 60790 kPa | – | 1538.1 ± 2.4
298.15 K, 75990 kPa | – | 1587.3 ± 2.5
298.15 K, 91180 kPa | – | 1634 ± 2.5
298.15 K, 101320 kPa | – | 1663.4 ± 2.5
301.02 K, 100 kPa | – | 1286.3 ± 2.3
303.13 K, 30390 kPa | – | 1414.6 ± 2.4
303.14 K, 15200 kPa | – | 1351.4 ± 2.4
303.14 K, 45590 kPa | – | 1472.1 ± 2.4
303.14 K, 60790 kPa | – | 1525.2 ± 2.4
303.14 K, 75990 kPa | – | 1575.1 ± 2.5
303.14 K, 91180 kPa | – | 1622.1 ± 2.5
303.14 K, 101320 kPa | – | 1651.8 ± 2.5
303.15 K, 100 kPa | – | 1279.9 ± 2.3
303.15 K, 101.33 kPa | 914.59 ± 0.24 kg/m3 | 1279.8 ± 1.6
303.16 K, 101.33 kPa | 914.548 ± 0.24 kg/m3 | –
308.13 K, 15200 kPa | – | 1336.9 ± 2.4
308.13 K, 30390 kPa | – | 1400.8 ± 2.4
308.13 K, 45590 kPa | – | 1459.2 ± 2.4
308.13 K, 60790 kPa | – | 1513 ± 2.4
308.13 K, 75990 kPa | – | 1563.1 ± 2.5
308.13 K, 91180 kPa | – | 1610.8 ± 2.5
308.13 K, 101320 kPa | – | 1640.8 ± 2.5
308.15 K, 100 kPa | – | 1264.7 ± 2.3
308.15 K, 101.33 kPa | 910.981 ± 0.24 kg/m3 and 911.02 ± 0.24 kg/m3 | 1264.7 ± 1.6
308.18 K, 100 kPa | – | 1264.6 ± 2.3
313.1 K, 15200 kPa | – | 1323 ± 2.3
313.1 K, 30390 kPa | – | 1387.6 ± 2.4
313.1 K, 45590 kPa | – | 1446.5 ± 2.4
313.1 K, 60790 kPa | – | 1501 ± 2.4
313.1 K, 75990 kPa | – | 1551.6 ± 2.5
313.1 K, 101320 kPa | – | 1629.9 ± 2.5
313.11 K, 91180 kPa | – | 1599.6 ± 2.5
313.15 K, 101.33 kPa | 907.43 ± 0.24 kg/m3 and 907.411 ± 0.24 kg/m3 | 1249.6 ± 1.6
313.16 K, 100 kPa | – | 1249.6 ± 2.3
318.15 K, 101.33 kPa | 903.84 ± 0.24 kg/m3 and 903.834 ± 0.24 kg/m3 | 1234.7 ± 1.6
318.19 K, 100 kPa | – | 1234.6 ± 2.3
318.29 K, 15200 kPa | – | 1308.8 ± 2.4
318.29 K, 30390 kPa | – | 1374.5 ± 2.4
318.29 K, 45590 kPa | – | 1434.2 ± 2.4
318.29 K, 60790 kPa | – | 1489.3 ± 2.4
318.29 K, 75990 kPa | – | 1539.5 ± 2.5
318.29 K, 91180 kPa | – | 1588.5 ± 2.5
318.29 K, 101320 kPa | – | 1619.2 ± 2.5
323.15 K, 101.33 kPa | 900.247 ± 0.24 kg/m3 | –
328.16 K, 101.33 kPa | 896.647 ± 0.24 kg/m3 | –
333.16 K, 101.33 kPa | 893.033 ± 0.24 kg/m3 | –
338.15 K, 101.33 kPa | 889.4 ± 0.24 kg/m3 | –
343.15 K, 101.33 kPa | 885.746 ± 0.24 kg/m3 | –
348.15 K, 101.33 kPa | 882.068 ± 0.25 kg/m3 | –
353.15 K, 101.33 kPa | 878.362 ± 0.25 kg/m3 | –
358.15 K, 101.33 kPa | 874.626 ± 0.25 kg/m3 | –

Settings | refractive index
[2] | 1.4258 ± 0.0005

[3]
Settings | molar heat capacity at constant pressure [J/K/mol]
284.16 K | 250.63 ± 4.3
288.14 K | 254.33 ± 4.4
293.14 K | 258.4 ± 4.5
298.16 K | 262.4 ± 4.5
303.15 K | 266.42 ± 4.6
308.15 K | 270.35 ± 4.7
313.15 K | 274.7 ± 4.8
318.15 K | 279.12 ± 4.8
323.15 K | 283.62 ± 4.9
328.15 K | 288.35 ± 5
333.15 K | 293.21 ± 5.1
338.15 K | 298.13 ± 5.2
343.15 K | 303.01 ± 5.2
348.15 K | 307.95 ± 5.3
353.14 K | 314.8 ± 5.5
358.16 K | 318.39 ± 5.5
